Among the data in ChEMBL document CHEMBL1126428, “Inhibitors of myo-inositol monophosphatase unrelated to the enzyme substrate” (Bioorg Med Chem Lett, 1992) are IC50 values, retold here.

The term IC50 denotes the point on the concentration scale where inhibition reaches its midpoint. Read a high IC50 as lower potency.

Structures are written as SMILES.

The experiment has as its target T1, Inositol monophosphatase 1 (Bos taurus, UniProt P20456).
T1 sequence (P20456 whole entry): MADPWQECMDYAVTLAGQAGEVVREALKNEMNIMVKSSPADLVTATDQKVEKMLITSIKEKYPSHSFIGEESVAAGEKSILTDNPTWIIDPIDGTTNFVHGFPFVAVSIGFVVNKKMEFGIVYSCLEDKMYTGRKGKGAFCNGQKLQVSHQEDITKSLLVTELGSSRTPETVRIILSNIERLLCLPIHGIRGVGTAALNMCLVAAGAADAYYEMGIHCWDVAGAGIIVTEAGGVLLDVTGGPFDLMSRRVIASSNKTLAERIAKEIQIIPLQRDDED
The experiment can be described thus: Concentration required for 50% inhibition of Inositol monophosphatase.
In turn, `O=P(O)(O)C(O)(Cc1ccc(Cl)cc1Cl)P(=O)(O)O` returned an IC50 of 23 µM. In turn, `COc1ccc(C(O)(P(=O)(O)O)P(=O)(O)O)cc1` yielded an IC50 of 40 µM. `O=P(O)(O)C(O)(c1ccccc1)P(=O)(O)O` had an IC50 of 29 µM. Compound `O=P(O)(O)C(O)(c1ccc(Oc2cccc3c2CCCC3)cc1)P(=O)(O)O` displayed an IC50 of 0.61 µM. For `O=P(O)(O)C(O)(c1ccc(Cl)cc1)P(=O)(O)O` the value was 36 µM. Turning to `CN(C)c1ccc(C(O)(P(=O)(O)O)P(=O)(O)O)cc1`, the half-inhibitory concentration (IC50) turned out to be 140 µM. In turn, `O=P(O)(O)C(O)(Cc1ccccc1)P(=O)(O)O` yielded an IC50 of 38 µM. `CC(O)(P(=O)(O)O)P(=O)(O)O` [ETIDRONIC ACID] displayed an IC50 of 110 µM.
